“And” between values parts separate entries of the source, which are not always exact repeats. Equal entries are not always repeated. Inconclusive results are not listed.
Tested on: BDF1 mice, s.c. Lewis lung carcinoma, T/C %
Test: NCI In Vivo Anticancer Drug Screen. Data for tumor model Lewis Lung Carcinoma (subcutaneous) in B6D2F1 (BDF1) mice
Procedure, shortened: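 Antitumor effect in vivo is scored from survival or tumor burden, reported as treated relative to vehicle controls.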

[1] = endpoint: median survival time, dose: 1.5 mg/kg/injection, schedule: Q01DX009 (ip), vehicle: Klucel (hydroxypropylcellulose) (HPC), higher = longer survival
[2] = endpoint: median survival time, dose: 3.12 mg/kg/injection, schedule: Q01DX009 (ip), vehicle: Klucel (hydroxypropylcellulose) (HPC), higher = longer survival
[3] = endpoint: median survival time, dose: 1.56 mg/kg/injection, schedule: Q01DX009 (ip), vehicle: Klucel (hydroxypropylcellulose) (HPC), higher = longer survival
[4] = endpoint: median survival time, dose: 6.25 mg/kg/injection, schedule: Q01DX009 (ip), vehicle: Klucel (hydroxypropylcellulose) (HPC), higher = longer survival
[5] = endpoint: median survival time, dose: 12.5 mg/kg/injection, schedule: Q01DX009 (ip), vehicle: Klucel (hydroxypropylcellulose) (HPC), higher = longer survival
[6] = endpoint: median survival time, dose: 25.0 mg/kg/injection, schedule: Q01DX009 (ip), vehicle: Klucel (hydroxypropylcellulose) (HPC), higher = longer survival
[7] = endpoint: mean tumor weight, dose: 25.0 mg/kg/injection, schedule: Q01DX011 (ip), vehicle: saline, higher = larger tumour
[8] = endpoint: mean tumor weight, dose: 50.0 mg/kg/injection, schedule: Q01DX011 (ip), vehicle: saline, higher = larger tumour
[9] = endpoint: mean tumor weight, dose: 100.0 mg/kg/injection, schedule: Q01DX011 (ip), vehicle: saline, higher = larger tumour
[10] = endpoint: mean tumor weight, dose: 200.0 mg/kg/injection, schedule: Q01DX011 (ip), vehicle: saline, higher = larger tumour

SMILES: CC(CN1CC(=O)NC(=O)C1)N1CC(=O)NC(=O)C1 (stereo not drawn)
- T/C (endpoint: median survival time, dose: 0.5 mg/kg/injection, schedule: Q01DX009 (ip), vehicle: saline, higher = longer survival): 91 % of control
- T/C (endpoint: median survival time, dose: 1.0 mg/kg/injection, schedule: Q01DX009 (ip), vehicle: saline, higher = longer survival): 109 % of control
- T/C (endpoint: median survival time, dose: 1.9 mg/kg/injection, schedule: Q01DX009 (ip), vehicle: saline, higher = longer survival): 112 % of control
- T/C (endpoint: median survival time, dose: 3.75 mg/kg/injection, schedule: Q01DX009 (ip), vehicle: saline, higher = longer survival): 106 % of control
- T/C (endpoint: median survival time, dose: 7.5 mg/kg/injection, schedule: Q01DX009 (ip), vehicle: saline, higher = longer survival): 108 % of control
- T/C (endpoint: median survival time, dose: 15.0 mg/kg/injection, schedule: Q01DX009 (ip), vehicle: Klucel (hydroxypropylcellulose) (HPC), higher = longer survival): 112 % of control
- T/C (endpoint: median survival time, dose: 30.0 mg/kg/injection, schedule: Q01DX009 (ip), vehicle: Klucel (hydroxypropylcellulose) (HPC), higher = longer survival): 86 % of control
- T/C (endpoint: median survival time, dose: 60.0 mg/kg/injection, schedule: Q01DX009 (ip), vehicle: Klucel (hydroxypropylcellulose) (HPC), higher = longer survival): 116 % of control
- T/C (endpoint: median tumor weight (est.), dose: 13.0 mg/kg/injection, schedule: Q01DX011 (ip), vehicle: saline, higher = larger tumour): 57 % of control and 74 % of control
- T/C (endpoint: median tumor weight (est.), dose: 20.0 mg/kg/injection, schedule: Q01DX011 (ip), vehicle: saline, higher = larger tumour): 58 % of control and 79 % of control
- T/C (endpoint: median tumor weight (est.), dose: 30.0 mg/kg/injection, schedule: Q01DX011 (ip), vehicle: saline, higher = larger tumour): 68 % of control

SMILES: [N-]=[N+]=CC(=O)NCC(=O)NN
- T/C (endpoint: mean tumor weight, dose: 125.0 mg/kg/injection, schedule: Q01DX011 (ip), vehicle: water, higher = larger tumour): 95 % of control
- T/C (endpoint: mean tumor weight, dose: 250.0 mg/kg/injection, schedule: Q01DX011 (ip), vehicle: water, higher = larger tumour): 66 % of control
- T/C (endpoint: mean tumor weight, dose: 500.0 mg/kg/injection, schedule: Q01DX011 (ip), vehicle: water, higher = larger tumour): 40 % of control

SMILES: CC(=O)Oc1ccc(OC(C)=O)c2c1C(=O)C=CC2=O
- T/C (endpoint: median survival time, dose: 0.38 mg/kg/injection, schedule: Q01DX009 (ip), vehicle: Klucel (hydroxypropylcellulose) (HPC), higher = longer survival): 107 % of control
- T/C (endpoint: median survival time, dose: 0.75 mg/kg/injection, schedule: Q01DX009 (ip), vehicle: Klucel (hydroxypropylcellulose) (HPC), higher = longer survival): 96 % of control
- T/C [1]: 100 % of control
- T/C (endpoint: median survival time, dose: 3.0 mg/kg/injection, schedule: Q01DX009 (ip), vehicle: Klucel (hydroxypropylcellulose) (HPC), higher = longer survival): 113 % of control
- T/C [2]: 111 % of control

SMILES: CC(=O)c1ccc(-c2ccccc2)cc1
- T/C (endpoint: mean tumor weight, dose: 125.0 mg/kg/injection, schedule: Q01DX011 (ip), vehicle: other, higher = larger tumour): 57 % of control
- T/C (endpoint: mean tumor weight, dose: 222.0 mg/kg/injection, schedule: Q01DX011 (ip), vehicle: other, higher = larger tumour): 174 % of control
- T/C (endpoint: mean tumor weight, dose: 250.0 mg/kg/injection, schedule: Q01DX011 (ip), vehicle: other, higher = larger tumour): 73 % of control
- T/C (endpoint: mean tumor weight, dose: 333.0 mg/kg/injection, schedule: Q01DX011 (ip), vehicle: other, higher = larger tumour): 118 % of control
- T/C (endpoint: mean tumor weight, dose: 500.0 mg/kg/injection, schedule: Q01DX011 (ip), vehicle: other, higher = larger tumour): 86 % of control

SMILES: C=C1C(=O)OC2CC1C(O)C/C(C)=C/CC/C(C)=C/C(O)CC2C (stereo not drawn)
- T/C [3]: 90 % of control
- T/C [2]: 108 % of control
- T/C [4]: 93 % of control
- T/C [5]: 92 % of control
- T/C [6]: 99 % of control

SMILES: CC[C@@]1(O)C[C@H](OC2CC(N(C)C)C(OC3CC(O)C(OC4CCC(=O)C(C)O4)C(C)O3)C(C)O2)c2c(cc3c(c2O)C(=O)c2c(O)cccc2C3=O)[C@H]1C(=O)OC (stereo partly drawn)
- T/C [1]: 104 % of control

SMILES: [I][Hg][CH2]C1OCCOC1[CH2][Hg][I] (stereo not drawn)
- T/C (endpoint: mean tumor weight, dose: 18.75 mg/kg/injection, schedule: Q01DX011 (ip), vehicle: saline, higher = larger tumour): 79 % of control
- T/C (endpoint: mean tumor weight, dose: 37.5 mg/kg/injection, schedule: Q01DX011 (ip), vehicle: saline, higher = larger tumour): 64 % of control
- T/C (endpoint: mean tumor weight, dose: 75.0 mg/kg/injection, schedule: Q01DX011 (ip), vehicle: saline, higher = larger tumour): 54 % of control

SMILES: CC[C@@H](C(=O)[C@@H](C)[C@@H](O)[C@H](C)CCc1ccc(C)c(O)c1C(=O)O)[C@H]1O[C@](CC)([C@H]2CC[C@](O)(CC)[C@H](C)O2)C[C@@H]1C
- T/C (endpoint: median survival time, dose: 0.78 mg/kg/injection, schedule: Q01DX009 (ip), vehicle: Klucel (hydroxypropylcellulose) (HPC), higher = longer survival): 113 % of control
- T/C [3]: 111 % of control
- T/C [2]: 93 % of control
- T/C [4]: 96 % of control
- T/C [6]: 96 % of control

SMILES: ClCCn1cnc2c(SCc3ccccc3)ncnc21
- T/C (endpoint: mean tumor weight, dose: 60.0 mg/kg/injection, schedule: Q01DX011 (ip), vehicle: other, higher = larger tumour): 107 % of control
- T/C (endpoint: mean tumor weight, dose: 120.0 mg/kg/injection, schedule: Q01DX011 (ip), vehicle: other, higher = larger tumour): 77 % of control
- T/C (endpoint: mean tumor weight, dose: 240.0 mg/kg/injection, schedule: Q01DX011 (ip), vehicle: other, higher = larger tumour): 46 % of control

SMILES: CC1CN=C(C(=O)C(C)C2CCC3C4CC=C5CC(O)CCC5(C)C4CCC23C)C1 (stereo not drawn)
- T/C (endpoint: mean tumor weight, dose: 100.0 mg/kg/injection, schedule: Q01DX011 (sc), vehicle: steriod suspending solution, higher = larger tumour): 118 % of control

SMILES: C=C[C@@]1(C)C=C2CC[C@@H]3[C@](C)(CCC[C@@]3(C)C(=O)O)[C@H]2CC1
- T/C [7]: 95 % of control
- T/C [8]: 88 % of control
- T/C [9]: 84 % of control
- T/C [10]: 95 % of control

SMILES: O=NN(CCCl)C(=O)Nc1ccc(I)cc1
- T/C [2]: 92 % of control
- T/C [4]: 97 % of control
- T/C [5]: 101 % of control
- T/C (endpoint: median survival time, dose: 50.0 mg/kg/injection, schedule: Q01DX009 (ip), vehicle: Klucel (hydroxypropylcellulose) (HPC), higher = longer survival): 108 % of control

SMILES: CCOC(=O)NP(=O)(N1CC1)N1CC1
- T/C (endpoint: mean tumor weight, dose: 2.5 mg/kg/injection, schedule: Q01DX011 (ip), vehicle: saline, higher = larger tumour): 61 % of control and 75 % of control
- T/C (endpoint: mean tumor weight, dose: 5.0 mg/kg/injection, schedule: Q01DX011 (ip), vehicle: saline, higher = larger tumour): 35 % of control and 56 % of control

SMILES: C=C1C(=O)OC2C1CCC(C)C1CCC(=O)OC12C (stereo not drawn)
- T/C (endpoint: median survival time, dose: 1.6 mg/kg/injection, schedule: Q01DX009 (ip), vehicle: Klucel (hydroxypropylcellulose) (HPC), higher = longer survival): 95 % of control
- T/C [2]: 102 % of control
- T/C (endpoint: median survival time, dose: 3.13 mg/kg/injection, schedule: Q01DX009 (ip), vehicle: Klucel (hydroxypropylcellulose) (HPC), higher = longer survival): 104 % of control
- T/C [4]: 102 % of control
- T/C [5]: 106 % of control
- T/C [6]: 92 % of control

SMILES: CS(=O)(=O)OCCC(=O)N1CCN(C(=O)CCOS(C)(=O)=O)CC1
- T/C (endpoint: mean tumor weight, dose: 12.5 mg/kg/injection, schedule: Q01DX011 (ip), vehicle: saline, higher = larger tumour): 85 % of control
- T/C [7]: 66 % of control
- T/C [8]: 85 % of control
- T/C [9]: 46 % of control
- T/C (endpoint: median survival time, dose: 1.56 mg/kg/injection, schedule: Q01DX009 (ip), vehicle: saline, higher = longer survival): 109 % of control
- T/C (endpoint: median survival time, dose: 3.12 mg/kg/injection, schedule: Q01DX009 (ip), vehicle: saline, higher = longer survival): 103 % of control
- T/C (endpoint: median survival time, dose: 6.25 mg/kg/injection, schedule: Q01DX009 (ip), vehicle: saline, higher = longer survival): 106 % of control
- T/C (endpoint: median survival time, dose: 12.5 mg/kg/injection, schedule: Q01DX009 (ip), vehicle: saline, higher = longer survival): 103 % of control
- T/C (endpoint: median survival time, dose: 25.0 mg/kg/injection, schedule: Q01DX009 (ip), vehicle: saline, higher = longer survival): 102 % of control
- T/C (endpoint: median survival time, dose: 50.0 mg/kg/injection, schedule: Q01DX009 (ip), vehicle: saline, higher = longer survival): 114 % of control

SMILES: CC(C)CNc1ccc(S(=O)(=O)c2ccc(NCC(C)C)c([N+](=O)[O-])c2)cc1[N+](=O)[O-]
- T/C (endpoint: median survival time, dose: 6.25 mg/kg/injection, schedule: Q01DX009 (ip), vehicle: saline with Tween-80, higher = longer survival): 110 % of control
- T/C (endpoint: median survival time, dose: 12.5 mg/kg/injection, schedule: Q01DX009 (ip), vehicle: saline with Tween-80, higher = longer survival): 103 % of control
- T/C (endpoint: median survival time, dose: 25.0 mg/kg/injection, schedule: Q01DX009 (ip), vehicle: saline with Tween-80, higher = longer survival): 109 % of control
- T/C (endpoint: median survival time, dose: 50.0 mg/kg/injection, schedule: Q01DX009 (ip), vehicle: saline with Tween-80, higher = longer survival): 86 % of control

SMILES: N=[N+]=CC(=O)CCC(NC(=O)C(CCC(=O)C=[N+]=N)NC(=O)CCC(N)C(=O)O)C(=O)O (stereo not drawn)
- T/C (endpoint: mean tumor weight, dose: 0.06 mg/kg/injection, schedule: Q01DX011 (ip), vehicle: water, higher = larger tumour): 103 % of control
- T/C (endpoint: mean tumor weight, dose: 0.12 mg/kg/injection, schedule: Q01DX011 (ip), vehicle: water, higher = larger tumour): 34 % of control
- T/C (endpoint: mean tumor weight, dose: 0.25 mg/kg/injection, schedule: Q01DX011 (ip), vehicle: water, higher = larger tumour): 17 % of control
- T/C (endpoint: median survival time, dose: 0.1 mg/kg/injection, schedule: Q01DX011 (ip), vehicle: other, higher = longer survival): 120 % of control
- T/C (endpoint: median survival time, dose: 0.2 mg/kg/injection, schedule: Q01DX011 (ip), vehicle: other, higher = longer survival): 89 % of control
- T/C (endpoint: median survival time, dose: 0.4 mg/kg/injection, schedule: Q01DX011 (ip), vehicle: other, higher = longer survival): 116 % of control
- T/C (endpoint: median survival time, dose: 0.8 mg/kg/injection, schedule: Q01DX011 (ip), vehicle: other, higher = longer survival): 107 % of control
- T/C (endpoint: median survival time, dose: 1.6 mg/kg/injection, schedule: Q01DX011 (ip), vehicle: other, higher = longer survival): 101 % of control

SMILES: COc1ccc2c(=O)cc(-c3ccccc3)n(C)c2c1
- T/C [8]: 109 % of control
- T/C [9]: 83 % of control
- T/C [10]: 79 % of control

— PubChem BioAssay AID270 (DTP/NCI, 2004)
